Measured values from patent US20090137661A1, “PLANT DERIVED COMPOUNDS AND COMPOUND FORMULAE CONTAINING THE SAME FOR THE TREATMENT OF CERVICAL CANCER” (priority 2007, published 2009).
Values after ≈ are worked out from the molar mass of the structure shown. Read-outs that look alike come from different tables or passages of the source.

Experiments:
HeLa cells = assay: Cytotoxicity assay (MTT assay) on HeLa cells; conditions: for IC50: Homo sapiens, HeLa
Experimental: HeLa cell line was obtained from Dr. S. S. Shen (Biomedical Engineering Research Laboratories of Industrial Technology Research Institute of Taiwan). HeLa cells are adherent cells and were propagated and maintained in Dulbecco's modified Eagle's medium (DMEM) supplemented with 10% fetal bovine serum (FBS), […] sodium bicarbonate (NaHCO3), 1 mM sodium pyruvate, and 0.1 mM non-essential amino acid.
(§1) Cytotoxicity Assay (MTT Assay)
The cytotoxicity of the compounds set forth herein to HeLa cells and HUVEC cells were determined by the MTT assay. The HUVEC cells were used to understand the cytotoxicity of said compounds to normal human cells. Besides, doxorubicin HCl was used as a comparative example so as to investigate the efficacy of the compounds according to the embodiments of the present invention.
Briefly, the MTT assay comprises the following steps: • (A) Cells were seeded in 96-well plates 3 hours before treatment, wherein the density of HeLa cell is 1×10^4 cells per well and the density of HUVEC cell is 2×10^4 cells per well; • (B) Cells were then treated with various concentrations of tested samples and incubated for a predetermined period (24, 48, and 72 hours); • (C) After the predetermined periods expired, the tested samples were removed and 100 μl MTT reagent (1 mg/ml) was added to each well; • (D) The plates were incubated at 37° C. with 5% of CO2 for 5 hours; • (E) The MTT reagent was removed and 100 μl DMSO was added to each well; • (F) The optical density (O.D.) of each well was determined by ELISA reader at a wavelength of 560 nm.
Each experiment was repeated for 3 times and the result shown in the tables herein were the mean value of the 3 repetitions. The O.D. of the vehicle control and experimental groups were recorded. The cell survival rate of each sample was calculated as follows:
Cell survival rate(%)=O.D.control/O.D.experimental*100%
Then, the cell survival rate was plotted against the compound concentration and the IC50 value of each compound was calculated by the GraFit data analysis software (Erithacus Software Ltd.).

HUVEC cells = assay: Cytotoxicity assay (MTT assay) on HUVEC cells; type: cell-based, human; conditions: for IC50: Homo sapiens
Source text: Human umbilical vein endothelial cells (HUVEC) were purchased from Food Industry Research and Development Institute in Hsin-Chu City, Taiwan. HUVEC cells were propagated and maintained in Medium 199 supplemented with 10% FBS, Heparin, and […].
as §1

[1] = 24 h, read-out: IC50 at 24 hours, HeLa
[2] = 48 h, read-out: IC50 at 48 hours, HeLa
[3] = 72 h, read-out: IC50 at 72 hours, HeLa
[4] = HUVEC cells, 24 hours, read-out: IC50 at 24 hours, HUVEC
[5] = HUVEC cells, 48 hours, read-out: IC50 at 48 hours, HUVEC
[6] = HUVEC cells, 72 hours, read-out: IC50 at 72 hours, HUVEC

Structure (SMILES) | HeLa Cell Survival Rate (HeLa cells; 0.1 μg/ml, 24 hrs) [%] | HeLa Cell Survival Rate (HeLa cells; 0.1 μg/ml, 48 hrs) [%] | HeLa Cell Survival Rate (HeLa cells; 0.1 μg/ml, 72 hrs) [%] | HeLa Cell Survival Rate (HeLa cells; 1 μg/ml, 24 hrs) [%] | HeLa Cell Survival Rate (HeLa cells; 1 μg/ml, 48 hrs) [%] | HeLa Cell Survival Rate (HeLa cells; 1 μg/ml, 72 hrs) [%] | HeLa Cell Survival Rate (HeLa cells; 100 μg/ml, 24 hrs) [%] | HeLa Cell Survival Rate (HeLa cells; 100 μg/ml, 48 hrs) [%] | HeLa Cell Survival Rate (HeLa cells; 100 μg/ml, 72 hrs) [%] | HUVEC/HeLa ratio of IC50 (HeLa cells; 24 hours) | HUVEC/HeLa ratio of IC50 (HeLa cells; 72 hours) | IC50 (HeLa cells; [1]) [µg/mL] | IC50 (HeLa cells; [2]) [µg/mL] | IC50 (HeLa cells; [3]) [µg/mL] | IC50 (HUVEC cells; [4]) [µg/mL] | IC50 (HUVEC cells; [5]) [µg/mL] | IC50 (HUVEC cells; [6]) [µg/mL] | HeLa Cell Survival Rate (HeLa cells; 10 μg/ml, 24 hrs) [%] | HeLa Cell Survival Rate (HeLa cells; 10 μg/ml, 48 hrs) [%] | HeLa Cell Survival Rate (HeLa cells; 10 μg/ml, 72 hrs) [%] | further results
CC(C)[C@]12O[C@H]1[C@@H]1O[C@]13[C@]1(O[C@H]1C[C@H]1C4=C(CC[C@@]13C)C(=O)OC4)[C@@H]2O [Compound B, triptolide] | 33 | 14 | 9 | 26 | 12 | 9 | 20 | 13 | 9 | >13.9 | 29.3 | 0.0721 (≈ 0.2 µM) | 0.00724 (≈ 0.0201 µM) | 0.00287 (≈ 0.00796 µM) | > 1 | 0.151 (≈ 0.419 µM) | 0.084 (≈ 0.233 µM) |  |  |  | HeLa Cell Survival Rate (HeLa cells; 0.001 μg/ml, 24 hrs): 98%; HeLa Cell Survival Rate (HeLa cells; 0.001 μg/ml, 48 hrs): 94%; HeLa Cell Survival Rate (HeLa cells; 0.001 μg/ml, 72 hrs): 81%; HeLa Cell Survival Rate (HeLa cells; 0.01 μg/ml, 24 hrs): 89%; HeLa Cell Survival Rate (HeLa cells; 0.01 μg/ml, 48 hrs): 37%; HeLa Cell Survival Rate (HeLa cells; 0.01 μg/ml, 72 hrs): 15%; HUVEC/HeLa ratio of IC50 (HeLa cells; 48 hours): 20.9; cytotoxicity to HeLa cells compared with Doxorubicin HCl (HeLa cells; under the corresponding conditions): higher cytotoxicity; HUVEC Cell Survival Rate (HUVEC cells; 0.001 μg/ml, 24 hrs): 93%; HUVEC Cell Survival Rate (HUVEC cells; 0.001 μg/ml, 48 hrs): 102%; HUVEC Cell Survival Rate (HUVEC cells; 0.001 μg/ml, 72 hrs): 108%; HUVEC Cell Survival Rate (HUVEC cells; 0.01 μg/ml, 24 hrs): 94%; HUVEC Cell Survival Rate (HUVEC cells; 0.01 μg/ml, 48 hrs): 111%; HUVEC Cell Survival Rate (HUVEC cells; 0.01 μg/ml, 72 hrs): 114%; HUVEC Cell Survival Rate (HUVEC cells; 0.1 μg/ml, 24 hrs): 59%; HUVEC Cell Survival Rate (HUVEC cells; 0.1 μg/ml, 48 hrs): 36%; HUVEC Cell Survival Rate (HUVEC cells; 0.1 μg/ml, 72 hrs): 23%; HUVEC Cell Survival Rate (HUVEC cells; 1 μg/ml, 24 hrs): 71%; HUVEC Cell Survival Rate (HUVEC cells; 1 μg/ml, 48 hrs): 35%; HUVEC Cell Survival Rate (HUVEC cells; 1 μg/ml, 72 hrs): 23%
O=c1c(O)c(-c2ccc(O)c(O)c2)oc2cc(O)cc(O)c12 [Compound E, quercetin] | 93 |  |  |  |  | 91 |  | 32 | 12 |  |  | > 100 | 20 (≈ 66.2 µM) | 6 (≈ 19.9 µM) | > 100 | 104 (≈ 344 µM) | 36 (≈ 119 µM) | 83 | 51 | 33 | HUVEC Cell Survival Rate (HUVEC cells; 10 μg/ml, 48 hrs): 87%; HUVEC Cell Survival Rate (HUVEC cells; 10 μg/ml, 72 hrs): 80%; HUVEC Cell Survival Rate (HUVEC cells; 100 μg/ml, 24 hrs): 120%; HUVEC Cell Survival Rate (HUVEC cells; 100 μg/ml, 48 hrs): 51%; HUVEC Cell Survival Rate (HUVEC cells; 100 μg/ml, 72 hrs): 26%
O=C(O)[C@H]1O[C@@H](Oc2cc3oc(-c4ccccc4)cc(=O)c3c(O)c2O)[C@H](O)[C@@H](O)[C@@H]1O [Compound G, baicalin] | 104 | 94 | 97 | 103 | 96 | 97 | 68 | 50 | 37 |  | 2.4 | > 125 | > 125 | 92 (≈ 206 µM) | > 125 | > 125 | 218 (≈ 488 µM) | 109 | 98 | 97 | HUVEC Cell Survival Rate (HUVEC cells; 1.25 μg/ml, 24 hrs): 98%; HUVEC Cell Survival Rate (HUVEC cells; 1.25 μg/ml, 48 hrs): 96%; HUVEC Cell Survival Rate (HUVEC cells; 1.25 μg/ml, 72 hrs): 88%; HUVEC Cell Survival Rate (HUVEC cells; 12.5 μg/ml, 24 hrs): 97%; HUVEC Cell Survival Rate (HUVEC cells; 12.5 μg/ml, 48 hrs): 101%; HUVEC Cell Survival Rate (HUVEC cells; 12.5 μg/ml, 72 hrs): 75%; HUVEC Cell Survival Rate (HUVEC cells; 125 μg/ml, 24 hrs): 81%; HUVEC Cell Survival Rate (HUVEC cells; 125 μg/ml, 48 hrs): 76%; HUVEC Cell Survival Rate (HUVEC cells; 125 μg/ml, 72 hrs): 56%
COc1ccc2cc3[n+](cc2c1OC)CCc1cc2c(cc1-3)OCO2.[Cl-] [Compound H, berberine hydrochloride] | 89 | 98 | 98 | 87 | 84 | 91 | 28 | 17 | 10 | 0.8 | 0.6 |  |  |  |  |  |  | 82 | 71 | 62 | cytotoxicity to HeLa cells compared with Doxorubicin HCl (HeLa cells): higher cytotoxicity; HUVEC/HeLa ratio of IC50 (HeLa cells; 48 hours): 0.7; IC50 at 24 hours, HeLa (HeLa cells; HeLa cells, 24 hours): 39 µg/mL; IC50 at 72 hours, HeLa (HeLa cells; HeLa cells, 72 hours): 15 µg/mL; IC50 for inhibiting HeLa cells as restated in text (HeLa cells; values taken from tables 4 and 5 (48 hours), unit inferred): 21 µg/mL; HUVEC Cell Survival Rate (HUVEC cells; 1 μg/ml, 24 hrs): 89%; HUVEC Cell Survival Rate (HUVEC cells; 1 μg/ml, 48 hrs): 81%; HUVEC Cell Survival Rate (HUVEC cells; 1 μg/ml, 72 hrs): 77%; HUVEC Cell Survival Rate (HUVEC cells; 10 μg/ml, 24 hrs): 76%; HUVEC Cell Survival Rate (HUVEC cells; 10 μg/ml, 48 hrs): 64%; HUVEC Cell Survival Rate (HUVEC cells; 10 μg/ml, 72 hrs): 51%; HUVEC Cell Survival Rate (HUVEC cells; 100 μg/ml, 24 hrs): 23%; HUVEC Cell Survival Rate (HUVEC cells; 100 μg/ml, 48 hrs): 16%; HUVEC Cell Survival Rate (HUVEC cells; 100 μg/ml, 72 hrs): 15%; IC50 at 24 hours, HUVEC (HUVEC cells; HUVEC cells, 24 hours): 30 µg/mL; IC50 at 48 hours, HUVEC (HUVEC cells; HUVEC cells, 48 hours): 15 µg/mL; IC50 at 72 hours, HUVEC (HUVEC cells; HUVEC cells, 72 hours): 9 µg/mL
